{
  "source": "patent US20170009228A1",
  "about": "“BIOLOGICAL MATERIALS AND THERAPEUTIC USES THEREOF” (IMPERIAL INNOVATIONS LIMITED, priority 2014, published 2017)",
  "key": {"[1]": {"tested_on": "human dermal fibroblasts (HDF)", "assay": "Cell adhesion to coated FBG, human dermal fibroblasts", "type": "cell-based", "settings": "coated wells, 45 minutes, crystal violet", "procedure": "(§1) (A) The sequence identified to bind integrin ≢vβ3 is shown in white (Yokoyama et al., 2000). Within this sequence two Arginines (shown in black) were identified to be citrullinated. (B) Wells of a 96 well plate were coated with different concentrations of FBG, citrullinated FBG (cFBG), FBG incubated in buffer without Calcium (FBG —Ca^2+), or FBG incubated without PAD (FBG -PAD). As a positive control wells were coated with Fibronectin (FN) (1 ug/ml), and coating with BSA (10 mg/ml) served as negative control. Plates were incubated with human dermal fibroblasts (HDF) or synovial fibroblasts from RA patients (RAF) for 45 minutes and adhesion was measured by determining absorbance of attached cells after staining with crystal violet (0.1%). Data are shown as the mean of at least four independent experiments+s.e.m., *=p<0.05, **=p<0.01."}, "[2]": {"tested_on": "primary human macrophages", "assay": "Cytokine synthesis in primary human macrophages stimulated with tenascin-C or its domains", "type": "cell-based", "procedure": "Human monocytes were isolated from peripheral blood (London Blood Bank) and macrophages were derived from monocytes after differentiation for 4 days with 100 ng/ml of M-CSF as previously described (Foxwell (1998)).\nImmediately after isolation, RA membrane cells and macrophages were cultured at 1×10^5 cells/well in RPMI 1640 containing 10% (v/v) FBS and 100 U/ml (Units/ml) penicillin/streptomycin in 96-well tissue culture plates for 24 hours before stimulation. Synovial fibroblasts (used only at either passage number 2 or 3) were cultured at 1×10^4 cells/well in DMEM containing 10% (v/v) FBS and 100 U/ml penicillin/streptomycin in 96-well tissue culture plates for 24 hours before stimulation.\n(§2) Cells were incubated for 24 hours at 37° C. with the indicated doses of tenascin-C and recombinant tenascin-C fragments (1.0 μM-1.0 nM). Cells were also stimulated where indicated with LPS (1 ng/ml for human macrophages, 10 ng/ml for human fibroblasts, RA membrane cells and HEKs, 100 ng/ml for MEFS and BMDMs and 10 ng/ml for HEKS), PAM3 (10 ng/ml for human macrophages, human fibroblasts, and HEKs, 100 ng/ml for MEFs and BMDMs), murine IL-1 (5 ng/ml for MEFS) and murine TNF-α (100 ng/ml for MEFS). Unless specifically stated otherwise rough LPS was used for in vitro studies.\nWhere stated, cells were pre-incubated with 10 μg/ml anti-CD14 antibody, 10 μg/ml IL1 receptor antagonist, 10 μg/ml anti-TLR2 antibody, 25 μg/ml anti-TLR4 antibody, 10 or 25 μg/ml isotype control antibody, 25 μg/ml polymyxin B, or 1 μg/ml msbB LPS, for 30 minutes at 37° C. before stimulation. Where stated, recombinant tenascin-C and FBG, and LPS were boiled for 15 minutes before addition to cells\n(§3) Supernatants were subsequently examined for the presence of the cytokines TNF-α, IL-6, and IL-8 by enzyme-linked immunosorbent assay (ELISA) according to the manufacturer's instructions. Absorbance was read on a spectrophotometric ELISA plate reader (Labsystems Multiscan Biochromic, Vantaa, Finland) and analyzed using the Ascent software program (Thermo Labsystems, Altrincham, UK)."}, "wild type mice": {"tested_on": "wild type mice", "assay": "Intra-articular injection of FBG in wild type mice, knee joint histology", "type": "in vivo", "procedure": "Wild type mice were anesthetized by intraperitoneal injection of 150 μl of Hypnorm diluted 1:10 in sterile water and then injected with 100 ng, 1 or 3 μg FBG in 10 μl of sterile PBS into the right knee joint using a sterile 33-gauge microcannula. Control mice received an injection of 10 μl PBS alone or were not injected.\nOn days 3 and 7, mice were euthanized, the knee joints were excised and fixed in 10% (volume/volume) buffered formalin, decalcified, with 10% EDTA and processed to paraffin.\nCoronal tissue sections (4 μm) were cut at 7 depths throughout the joint; 80 μm apart and stained with hematoxylin and eosin or Safranin-O to assess joint pathology.\nInflammation (the influx of inflammatory cells into synovium (infiltrate) and the joint cavity (exudates), was graded using an arbitrary scale from 0 (no inflammation) to 3 (severe inflammation). Chondrocyte death was determined as the percentage of cartilage area containing empty lacunae in relation to the total area. Cartilage surface erosion was determined as the amount of cartilage lost in relation to the total cartilage area. Bone destruction was determined in 10 different areas of the total knee joint section. Destruction was graded on a scale of 0 (no damage) to 3 (complete loss of bone structure). Histological analysis was performed by an investigator who was blinded to the experimental groups. The mean score for each animal in an experimental group was calculated by averaging the histopathologic scores in at least 5 section depths per joint."}, "[3]": {"tested_on": "synovial membranes from RA patients", "assay": "Cytokine synthesis in RA synovial membrane cells stimulated with FBG", "type": "cell-based, human", "settings": "FBG 1.0-0.01 μM, 24 h", "excerpt": "RA membrane cells (representing a mixed population of all synovial cell types) were isolated from synovial membranes obtained from patients undergoing joint replacement surgery as previously described (Brennan (1989)). RA synovial fibroblasts were isolated from the mixed population of RA membrane cells as previously described (Brennan (1989)). The study was approved by the local Trust ethics committee (Riverside NHS Research Committee), and waste tissue (synovium after joint replacement surgery) was obtained only after receiving signed informed consent from the patient and anonymyzing the tissue to protect patient identity.\nImmediately after isolation, RA membrane cells and macrophages were cultured at 1×10^5 cells/well in RPMI 1640 containing 10% (v/v) FBS and 100 U/ml (Units/ml) penicillin/streptomycin in 96-well tissue culture plates for 24 hours before stimulation. […]\nas §3"}, "[4]": {"tested_on": "synovial fibroblasts from RA patients (RAF)", "assay": "Cell adhesion to coated FBG, RA synovial fibroblasts", "type": "cell-based, human", "settings": "coated wells, 45 minutes, crystal violet", "procedure": "as §1"}, "TLR4": {"tested_on": "TLR4", "assay": "Cytokine synthesis in embryonic fibroblasts or macrophages from TLR4 deficient mice", "type": "cell-based", "procedure": "MEFs express high levels of mRNA of all 9 murine TLRs and are specifically and highly responsive to TLR ligand activation. […] MEFs were isolated from d13 embryos harvested from age-matched, pregnant female wild type, TLR2, TLR4 and null mice (as described in Todaro (1963)). Fibroblasts were cultured at 2×10^4 cells/well in DMEM containing 10% (v/v) FBS and 100 U/ml penicillin/streptomycin in 96-well tissue culture plates for 24 hours before stimulation.\nBMDMs were derived by aspirating the femurs of age matched female wild type, TLR2 and TLR4 null mice as described in Butler (1999)) and culturing the cells for 7 days in DMEM, 20% (v/v) FBS, 10 ml/L (v/v) antibiotic-antimycotic solution PSA, 50 μM β-Mercaptoethanol and 10 ng/ml M-CSF. Macrophages were then cultured at 1×10^5 cells/well in DMEM, 20% (v/v) FBS, 10 ml/L (v/v) antibiotic-antimycotic solution PSA, 50 μM β-Mercaptoethanol in 96-well tissue culture plates for 24 hours before stimulation.\nas §2, §3"}, "[5]": {"settings": "1 μg FBG, 3 days after injection"}},
  "data": [
    {"substance": "FBG: recombinant fibrinogen-like globe, 227 amino acid globular domain at the C terminal of tenascin-C", "values": [
      {"measurement": "adhesion of human dermal fibroblasts (HDF)", "setting": "[1]", "value": "proadhesive"},
      {"measurement": "heat and polymyxin B sensitivity of cytokine stimulation", "setting": "[2]; boiled 15 min, 25 μg/ml polymyxin B pre-incubation", "value": "heat sensitive and unaffected by polymyxin B"},
      {"measurement": "production of TNF-α, IL-6 and IL-8", "setting": "[2]; human macrophages, 24 h, 1.0 μM-1.0 nM", "value": "to an equal extent to full-length tenascin-C"},
      {"measurement": "inflammation and proteoglycan loss", "setting": "wild type mice; 100 ng FBG intra-articular", "value": "No inflammation or proteoglycan loss"},
      {"measurement": "knee joint histology", "setting": "wild type mice; 1 μg FBG intra-articular, 3 days", "value": "inflammatory cell infiltration (FIG. 6f), mild synovitis, pannus formation (FIG. 6g) and proteoglycan loss"},
      {"measurement": "histological quantification: cartilage surface erosion and bone damage", "setting": "wild type mice; [5]", "value": "modest amount"},
      {"measurement": "histological quantification: cellular infiltrate, exudate and chondrocyte death", "setting": "wild type mice; [5]", "value": "high levels"},
      {"measurement": "knee joint histology", "setting": "wild type mice; 3 μg FBG intra-articular", "value": "A similar response"},
      {"measurement": "joint inflammation", "setting": "wild type mice; wild type mice, intra-articular, 100 ng, 1 or 3 μg", "value": "transient and dose dependent stimulation of joint inflammation"},
      {"measurement": "synthesis of IL-6, IL-8 and TNF-α", "setting": "[3]", "value": "further enhanced"},
      {"measurement": "adhesion of synovial fibroblasts from RA joints (RAF)", "setting": "[4]", "value": "proadhesive"},
      {"measurement": "cytokine synthesis", "setting": "TLR4", "value": "does not stimulate cytokine synthesis"}
    ]}
  ]
}
